Consider 1 compound from patent US12171230B2, “Herbicidal compositions” (Bayer Aktiengesellschaft, priority 2018, dated 2024).

Common to all, as to assay type: in vivo
The test system of one assay is Kochia scoparia. Briefly: Post-emergence herbicidal action against Kochia scoparia. Particulars: g of a.i./ha by row: 30, 5, 5 + 30. From the text: (§1) The following abbreviations are used in the description and the tables that follow: • g of a.i./ha=grams of active substance (active ingredient) (=100% active compound) per hectare; • The sum total of the effects of the individual applications is reported under E^A; • expected values according to Colby are each reported under E^C.
(§2) The rating period is reported in days after application (DAT).

A further assay deals with Abutilon theophrasti. Kind of assay: Post-emergence herbicidal action against Abutilon theophrasti. The conditions noted are these: 21 DAT.
In a further assay the test system is Brachiaria decumbens. Briefly: Post-emergence herbicidal action against Brachiaria decumbens. Particulars: g of a.i./ha: 200, 100, 100 + 200.
Description: as §1, §2

Another assay concerns Bidens pilosa. Briefly: Post-emergence herbicidal action against Bidens pilosa. The conditions noted are these: for Herbicidal action against Bidens pilosa: 21 DAT. The gist of the method:
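Pot-grown plants, three weeks old at the three-leaf stage, received foliar sprays of various dosages. Visual assessment relative to untreated plants followed 3 to 4 weeks later.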

Another assay relates to Lolium rigidum. Kind of assay: Post-emergence herbicidal action against Lolium rigidum. The gist of the method:
(§3)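 Rates are given as grams of active ingredient (100% active compound) per hectare. E^A is the summed effect of the individual applications and E^C the expected value by Colby, with ratings timed in days after application (DAT).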

In the next assay the test system is Alopecurus myosuroides. Kind of assay: Post-emergence herbicidal action against Alopecurus myosuroides. In outline: as §3
A further assay relates to Veronica hederifolia. Kind of assay: Post-emergence herbicidal action against Veronica hederifolia. Particulars: g of a.i./ha: 16, 270, 16 + 270.
Description: as §1, §2

Another assay deals with Brachiaria plantaginea. Briefly: Post-emergence herbicidal action against Brachiaria plantaginea. Particulars: (Z61) post-emergence; g of a.i./ha: 200, 100, 100 + 200.
Description: as §1, §2

[1] abbreviates: (Z61) post-emergence, g of a.i./ha: 4, 1, 270, 90, 4 + 270, 4 + 90, 1 + 270, 1 + 90, 90 g of a.i./ha.
[2] abbreviates: (Z61) post-emergence, g of a.i./ha: 4, 1, 270, 90, 4 + 270, 4 + 90, 1 + 270, 1 + 90, 270 g of a.i./ha.

Regarding `O=C(Nc1ccc(F)cc1F)c1cccnc1Oc1cccc(C(F)(F)F)c1` [(B2.18) Diflufenican], in the assay with Kochia scoparia, the “Herbicidal action 21 DAT against Kochia scoparia” value worked out at 25%. For the same compound, the “Herbicidal action against Abutilon theophrasti” value in the assay on Abutilon theophrasti (30 g of a.i./ha) was 10%; in the assay with Abutilon theophrasti (90 g of a.i./ha), 10%; in the assay with Abutilon theophrasti (270 g of a.i./ha) it was 25%. Moreover, the “Herbicidal action 28 DAT against Brachiaria decumbens” value with Brachiaria decumbens came to 0%. The “Herbicidal action against Bidens pilosa” value in the assay with Bidens pilosa (90 g of a.i./ha) was determined as 35%; with Bidens pilosa (270 g of a.i./ha), 45%. For the same compound, the “Herbicidal action 21 DAT against Bidens pilosa” value in the assay with Bidens pilosa (post-emergence, g of a.i./ha: 90, 30, 15, 15 + 90, 15 + 30) was found to be 10%. The “Herbicidal action 28 DAT against Lolium rigidum” value in the assay on Lolium rigidum (90 g of a.i./ha) is 0%; in the assay on Lolium rigidum (270 g of a.i./ha), 0%; in the assay with Lolium rigidum (setting [1]), 15%; in the assay on Lolium rigidum (setting [2]), 20%; with Lolium rigidum ((Z119) post-emergence, g of a.i./ha: 16, 4, 1, 270, 90, 30, 16 + 270, 16 + 90, 16 + 30, 4 + 270, 4 + 90, 4 + 30, 1 + 270), 0%. Besides, the “Herbicidal action 14 DAT against Lolium rigidum” value with Lolium rigidum ((Z61) post-emergence, g of a.i./ha: 1, 270, 90, 30, 1 + 270, 1 + 90, 1 + 30, 30 g of a.i./ha) was 0%; in the assay with Lolium rigidum ((Z61) post-emergence, g of a.i./ha: 1, 270, 90, 30, 1 + 270, 1 + 90, 1 + 30, 270 g of a.i./ha), 10%; with Lolium rigidum ((Z119) post-emergence, g of a.i./ha by row: 16, 1, 90, 270, 16 + 90, 1 + 270), 5%. The “Herbicidal action 28 DAT against Alopecurus myosuroides” value in the assay on Alopecurus myosuroides ((Z61) post-emergence, g of a.i./ha by row: 16, 4, 1, 270, 90, 16 + 270, 4 + 270, 4 + 90, 1 + 270, 1 + 90, 90 g of a.i./ha) was 15%; in the assay with Alopecurus myosuroides ((Z61) post-emergence, g of a.i./ha by row: 16, 4, 1, 270, 90, 16 + 270, 4 + 270, 4 + 90, 1 + 270, 1 + 90, 270 g of a.i./ha) it was 20%; in the assay with Alopecurus myosuroides ((Z119) post-emergence, g of a.i./ha by row: 16, 1, 270, 90, 30, 16 + 270, 16 + 90, 16 + 30, 1 + 270, 1 + 90), 0%. The “Herbicidal action 14 DAT against Alopecurus myosuroides” value in the assay with Alopecurus myosuroides (setting [1]) was 15%; in the assay on Alopecurus myosuroides (setting [2]) it was 20%; in the assay on Alopecurus myosuroides ((Z119) post-emergence, g of a.i./ha: 16, 1, 270, 16 + 270, 1 + 270), 10%. Besides, the “Herbicidal action 14 DAT against Veronica hederifolia” value in the assay with Veronica hederifolia worked out at 85%. In addition, in the assay with Brachiaria plantaginea, the “Herbicidal action 28 DAT against Brachiaria plantaginea” value is 0%.
